Consider two compounds from US20210196598A1, “Specific Co-Aggregation Inhibition by Arginine” (priority 2018, published 2021).

One may read the inhibition as the change of the read-out against control, counted positive when it falls.

Test [1] concerns S. gordonii and F. nucleatum co-aggregate pair. Description: Visual Coaggregation Score, S. gordonii + F. nucleatum. The format is cell-based. The following applies: post-treatment. The protocol:
(§1) The following six pairs of co-aggregates were co-cultured and treated with either 86 mM arginine, 400 mM arginine, 86 mM lysine or 400 mM lysine:
3) Commensal oral bacterium S. gordonii and pathogenic oral bacterium F. nucleatum;
(§2) Bacterial aggregation was scored visually using a Visual Coaggregation Score (0-4) scoring system.

The subject of test [2] is co-aggregates of S. gordonii (commensal) and F. nucleatum (pathogenic). The test is described as follows: FlowCam coaggregation, commensal:pathogenic pair S. gordonii and F. nucleatum. The format is cell-based, Streptococcus gordonii and Fusobacterium nucleatum. The protocol:
(§3) Coaggregation was studied using FlowCam® technology (Fluid Imaging Technologies, ME, USA). S. gordonii DL1, A. oris MG1, P. gingivalis W83, and F. nucleatum ATCC 25586 were harvested from batch cultures and washed once in coaggregation buffer by centrifuging for 10 mins at 3,000 g. After centrifugation, the pellets were re-suspended in coaggregation buffer and adjusted to an optical density of 1.0 (±0.1) at 600 nm. The cell suspensions were then subject to a 5-fold dilution in coaggregation buffer. Each pair was then loaded onto the FlowCam™ device and allowed to sit for one minute. The pairs were subsequently pumped through the device until they reached the flow cell. Data collection was initiated once the Olympus UPlanFLN 10X/0.30 objective was focused on the flowing particles. The FlowCam™ was run for 45 seconds at a flow rate of 0.3 ml/min and images were acquired at 10 frames per second. Flash duration was set to 8 μSec and the particle sizes were measured using area based diameter (ABD) with a particle filter set to detect between 5 and 10000 μm. The same procedure was tested for each pair while suspended in coaggregation buffer supplemented with various concentrations of arginine or lysine.
(§4) The following three pairs of co-aggregates were co-cultured and treated with either buffer (untreated; control) 86 mM arginine or 100 mM arginine:
3) Commensal oral bacterium S. gordonii and pathogenic bacterium Fusobacterium nucleatum.
(§5) The reduction in aggregate sizes was greater in each pair of commensal/pathogenic bacteria, i.e. the co-aggregates of A. naeslundii (commensal) and P. gingivalis (pathogenic) and the co-aggregates of S. gordonii (commensal) and F. nucleatum (pathogenic) compared to the commensal/commensal co-aggregates of S. gordonii (commensal) and A. naeslundii (commensal).
(§6) In FIG. 2, the data from the treated co-aggregates was normalized against untreated co-aggregates. FIG. 2 reflects a selective action of arginine against specific co-aggregates. […]

In test [3] the test system is A. oris and P. gingivalis co-aggregate pair. Description: Visual Coaggregation Score, A. oris + P. gingivalis. The test is classed as cell-based. The following applies: post-treatment. The protocol:
as §1
6) Commensal oral bacterium A. oris and pathogenic oral bacterium P. gingivalis.
as §2

Test [4] relates to co-aggregates of A. naeslundii (commensal) and P. gingivalis (pathogenic). The test is described as follows: FlowCam coaggregation, commensal:pathogenic pair A. naeslundii and P. gingivalis. The test is classed as cell-based, Actinomyces naeslundii and Porphyromonas gingivalis. The protocol: as §3, §4
2) Commensal oral bacterium A. naeslundii and pathogenic bacterium Porphyromonas gingivalis,
as §5, §6

Test [5] has as its system S. gordonii and V. atypica co-aggregate pair. Description: Visual Coaggregation Score, S. gordonii + V. atypica. The format is cell-based. The following applies: post-treatment. The protocol: as §1
2) Commensal oral bacterium S. gordonii and pathogenic oral bacterium V. atypica;
as §2

Test [6] deals with A. oris and V. atypica co-aggregate pair. Description: Visual Coaggregation Score, A. oris + V. atypica. The format is cell-based. Particulars: post-treatment. The method, then:
as §1
4) Commensal oral bacterium A. oris and pathogenic oral bacterium V. atypica;
as §2

Test [7] has as its system A. oris and F. nucleatum co-aggregate pair. The test is described as follows: Visual Coaggregation Score, A. oris + F. nucleatum. The following applies: post-treatment. The test is classed as cell-based. The protocol: as §1
5) Commensal oral bacterium A. oris and pathogenic oral bacterium F. nucleatum; and
as §2

For test [8], the system named is commensal/pathogenic co-aggregate pairs. Description: Visual coaggregation scoring, summary in words over the co-aggregate pairs of Table 1. The test is classed as cell-based.
For another test, the system named is oral biofilms (plaque). Description: Destabilization of oral biofilms (plaque). The test is classed as cell-based. Particulars: biofilms treated with the amino acid.
For test [9], the system named is co-aggregates of S. gordonii (commensal) and A. naeslundii (commensal). Description: FlowCam coaggregation, commensal:commensal pair S. gordonii and A. naeslundii. The test is classed as cell-based, Streptococcus gordonii and Actinomyces naeslundii. The protocol:
as §3, §4
1) Commensal oral bacteria Streptococcus gordonii and Actinomyces naeslundii,
as §5, §6

Test [10] relates to S. gordonii and A. oris co-aggregate pair. Description: Visual Coaggregation Score, S. gordonii + A. oris. The format is cell-based. Particulars: for Visual Coaggregation Score (0-4): post-treatment. The protocol:
as §1
1) Commensal oral bacteria S. gordonii and A. oris;
as §2

Where [11] appears, read: 86 mM and 100 mM arginine, FIG. 1.
[12] abbreviates: Streptococcus gordonii, read-out: inhibition of co-aggregation, normalized against untreated co-aggregates.
Setting [13] is: Actinomyces naeslundii, read-out: inhibition of co-aggregation, normalized against untreated co-aggregates.

As for `N=C(N)NCCC[C@H](N)C(=O)O` [arginine], the “Visual Coaggregation Score (0-4)” value is listed as 0-1 in [1] (86 mM amino acid); 0-1 in [1] (400 mM amino acid); 0-1 in [3] (86 mM amino acid); 0 in [3] (400 mM amino acid); 2-3 in [5] (86 mM amino acid); 2 in test [5] (400 mM amino acid). The “Visual Coaggregation Score (0-4)” value is 0-1 in test [6] (86 mM amino acid); 0 in [6] (400 mM amino acid); 0-1 in [7] (86 mM amino acid); 0 in test [7] (400 mM amino acid); 4 in [10] (86 mM amino acid); 3-4 in [10] (400 mM amino acid). Also, the “bacterial aggregate sizes (area based diameter), in words” value in test [2] (setting [11]), in [4] (setting [11]) and in test [9] (setting [11]) was “dose dependent reduction” throughout. In addition, the inhibition at 86000 µM came out at 25% in test [2] (setting [12]), 22% in test [4] (setting [13]) and 11% in test [9] (setting [12]). The inhibition at 100000 µM in [2] (setting [12]) came to 37%; in [4] (setting [13]) it was 64%; in [9] (setting [12]), 14%. The “inhibition of aggregation, in words” value in [8] (86 mM and 100 mM arginine (so in the source), each of the five commensal/pathogenic pairs) is “selectively inhibited aggregation”. Besides, the “effect on oral biofilms / total biofilm biomass, in words” value in the test on oral biofilms (plaque) is reported as “reductions in total biofilm biomass”. The “inhibitory effect on aggregation, in words” value in test [10] (86 mM and 100 mM arginine (so in the source), commensal/commensal pair) was “none to little inhibitory effect”.

With `NCCCC[C@H](N)C(=O)O` [lysine, reference compound], the “Visual Coaggregation Score (0-4)” value is listed as 3-4 in [1] (86 mM amino acid); 3 in test [1] (400 mM amino acid); 1-2 in [3] (86 mM amino acid); 0-1 in test [3] (400 mM amino acid); 4 in [5] (86 mM amino acid); 3 in [5] (400 mM amino acid). In addition, the “Visual Coaggregation Score (0-4)” value is recorded as 3 in test [6] (86 mM amino acid); 0-1 in [6] (400 mM amino acid); 3-4 in [7] (86 mM amino acid); 2-3 in [7] (400 mM amino acid); 4 in test [10] (86 mM amino acid); 4 in test [10] (400 mM amino acid). For the same compound, in test [8] (lysine in any of the corresponding pairs), the “anti-coadhesion functionality, in words” value is recorded as “Little to no anti-coadhesion functionality”. Moreover, the “effect on oral biofilms / total biofilm biomass, in words” value in the test with oral biofilms (plaque) is “No similar disruptive effects”.
